Data set [1] addresses T1, human Cav3.2 channels (Homo sapiens, UniProt O95180).
T1 construct: expressed in transfected cells; host or cells: HEK293 cells (ATCC No. CRL-1573), plasmid pcDNA3.1(+)
Kind of data set: Electrophysiological evaluation, whole-cell patch-clamp with automatic patch-clamp system. The class given is cell-based. The note with it: 0.3 μM, holding potential −80 mV; read-out: Cav3.2 channel current inhibition ratio at 0.3 μM of test compound (holding potential −80 mV). Here is the method: Electrophysiological Evaluation
Stable cell line expressing human Cav3.2 channels, which had been produced by Test method (1) of Example 140, was seeded in a 10-cm dish using DMEM medium containing 10% FBS, and the cells were cultured for 24 hours or longer under the conditions of 37° C. and 5% CO2. The cells were detached using Accutase and were used after being suspended in ice-cold extracellular solution. The Cav3.2 channel current was measured by the Whole-cell patch-clamp method using an automatic patch-clamp system (Port-a-Patch; Nanion Technologies GmbH, EPC-10; HEKA Elektronik GmbH, Patchmaster; HEKA Elektronik GmbH) and buffers described below. Measurement of the Cav3.2 channel current was carried out at room temperature, and the measurement conditions were set as follows: holding potential: −80 mV, depolarization potential: −20 mV, depolarization time: 100 msec, and depolarization frequency: 10 sec. The Cav3.2 channel current was defined as the peak value of the inward current observed when depolarization occurred at −20 mV.
For a test compound, a DMSO solution was diluted 1,000 times with extracellular solution, and thus a solution having an intended concentration was produced. The test compound was applied using an extracellular perfusion system (Nanion Technologies GmbH) until the Cav3.2 channel current was stabilized, and five concentrations at the maximum from the low-concentration side were cumulatively applied. The inhibition ratio of the test compound was calculated from the current value immediately before the application of the test compound and the change rate of the Cav3.2 channel current after the application of the test compound (conditions for a holding potential of −80 mV: test compound concentration of 0.3 μM, conditions for a holding potential of −100 mV: test compound concentration of 3 μM).
Extracellular solution: 135 mM NaCl, 4 mM KCl, 1 mM MgCl2, 5 mM CaCl2, 5 mM D-Glucose, and 10 mM HEPES, pH 7.4
Internal solution for electrode: 10 mM NaCl, 10 mM HEPES, 50 mM CsCl, 60 mM CsF, and 20 mM EGTA, pH 7.2
(In general: Patch clamp records ionic current or voltage across a cell membrane.)

The target in data set [2] is T2, CYP3A4 (Homo sapiens, UniProt P08684).
T2 construct: purchased Cypex, Ltd; host or cells: E. coli membranes (Bactosomes)
T2 sequence (P08684 whole entry): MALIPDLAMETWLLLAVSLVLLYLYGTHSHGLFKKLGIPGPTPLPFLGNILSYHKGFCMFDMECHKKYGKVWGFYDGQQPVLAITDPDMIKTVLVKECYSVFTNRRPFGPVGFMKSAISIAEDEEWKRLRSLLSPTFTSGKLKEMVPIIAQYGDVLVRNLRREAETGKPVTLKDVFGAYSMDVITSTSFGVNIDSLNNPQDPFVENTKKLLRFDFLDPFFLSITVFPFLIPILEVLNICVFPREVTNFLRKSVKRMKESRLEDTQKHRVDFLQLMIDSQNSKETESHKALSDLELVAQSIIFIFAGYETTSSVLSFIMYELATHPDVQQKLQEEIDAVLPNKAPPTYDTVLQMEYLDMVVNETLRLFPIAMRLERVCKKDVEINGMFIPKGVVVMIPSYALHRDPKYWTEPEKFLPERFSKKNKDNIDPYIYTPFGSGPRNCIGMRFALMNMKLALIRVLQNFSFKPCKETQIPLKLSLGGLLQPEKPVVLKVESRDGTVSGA
In words: Evaluation of CYP3A4 activity inhibitory action. The class given is in vitro ADME. The note with it: Human CYP3A4BR EasyCYP Bactosomes, 7-Benzyloxy-4-(trifluoromethyl)-coumarin. The protocol: Evaluation of CYP3A4 Activity Inhibitory Action
To a 50 mM potassium phosphate buffer solution (pH 7.4), 5 nM Human CYP3A4BR EasyCYP Bactosomes (Cypex, Ltd.), 50 μM 7-Benzyloxy-4-(trifluoromethyl)-coumarin, cofactor mix (0.0081 mM β-NADP^+, 0.4 mM G-6-P, 0.4 mM MgCl2, and 0.2 U/mL G-6-P DH(Y)), and 0.01% Pluronic F-127 were added, and the mixture was incubated for 45 minutes at 37° C. The reaction was initiated by adding the cofactor mix. After the incubation, 0.5 M Tris base/acetonitrile (20:80) was added thereto as a reaction terminating liquid, and the resulting mixture was stirred. Subsequently, the fluorescence intensity (excitation: 405 nm, emission: 535 nm) was measured. The reaction was carried out in duplicate. The results are presented as the inhibition rate at 10 μM of the test compound.

In data set [3] the target is T1, human Cav3.2 channels. In words: Intracellular calcium concentration measurement (Fluo-4 AM) in stable cells expressing human Cav3.2 channels, buffer A / buffer B. In kind it is cell-based. A digest of the protocol:
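HEK293 cells stably expressing human Cav3.2, Fluo-4 loaded, preincubated 15 min at room temperature with compound (0.1% DMSO final) in buffer A (K+ equilibrium −92 mV) or B (−110 mV). After ionophore, KCl (83.8 or 91.8 mM) stimulus; 10 s fluorescence rise (ex 485/em 510 nm) gave % inhibition and IC50.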
(In general: A change in cytosolic calcium serves as a functional read-out for many receptors and channels.)

Setting [4] is: Tables 2 to 6, buffer A, equilibrium potential of potassium −92 mV, read-out: Inhibitory action of buffer A (inactivated state).
[5] abbreviates: Table 1, buffer A, equilibrium potential of potassium −92 mV, read-out: Inhibitory action of buffer A (inactivated state).
The mark [6] stands for this setting: Table 1, buffer B, equilibrium potential of potassium −110 mV, read-out: Inhibitory action of buffer B (resting state or closed state).

pIC50: −log10 of the molar value. Like-named read-outs stand apart in the source and are kept apart here. Where only a bound is given, the exact number is not on record here.

T1 sequence (O95180 whole entry): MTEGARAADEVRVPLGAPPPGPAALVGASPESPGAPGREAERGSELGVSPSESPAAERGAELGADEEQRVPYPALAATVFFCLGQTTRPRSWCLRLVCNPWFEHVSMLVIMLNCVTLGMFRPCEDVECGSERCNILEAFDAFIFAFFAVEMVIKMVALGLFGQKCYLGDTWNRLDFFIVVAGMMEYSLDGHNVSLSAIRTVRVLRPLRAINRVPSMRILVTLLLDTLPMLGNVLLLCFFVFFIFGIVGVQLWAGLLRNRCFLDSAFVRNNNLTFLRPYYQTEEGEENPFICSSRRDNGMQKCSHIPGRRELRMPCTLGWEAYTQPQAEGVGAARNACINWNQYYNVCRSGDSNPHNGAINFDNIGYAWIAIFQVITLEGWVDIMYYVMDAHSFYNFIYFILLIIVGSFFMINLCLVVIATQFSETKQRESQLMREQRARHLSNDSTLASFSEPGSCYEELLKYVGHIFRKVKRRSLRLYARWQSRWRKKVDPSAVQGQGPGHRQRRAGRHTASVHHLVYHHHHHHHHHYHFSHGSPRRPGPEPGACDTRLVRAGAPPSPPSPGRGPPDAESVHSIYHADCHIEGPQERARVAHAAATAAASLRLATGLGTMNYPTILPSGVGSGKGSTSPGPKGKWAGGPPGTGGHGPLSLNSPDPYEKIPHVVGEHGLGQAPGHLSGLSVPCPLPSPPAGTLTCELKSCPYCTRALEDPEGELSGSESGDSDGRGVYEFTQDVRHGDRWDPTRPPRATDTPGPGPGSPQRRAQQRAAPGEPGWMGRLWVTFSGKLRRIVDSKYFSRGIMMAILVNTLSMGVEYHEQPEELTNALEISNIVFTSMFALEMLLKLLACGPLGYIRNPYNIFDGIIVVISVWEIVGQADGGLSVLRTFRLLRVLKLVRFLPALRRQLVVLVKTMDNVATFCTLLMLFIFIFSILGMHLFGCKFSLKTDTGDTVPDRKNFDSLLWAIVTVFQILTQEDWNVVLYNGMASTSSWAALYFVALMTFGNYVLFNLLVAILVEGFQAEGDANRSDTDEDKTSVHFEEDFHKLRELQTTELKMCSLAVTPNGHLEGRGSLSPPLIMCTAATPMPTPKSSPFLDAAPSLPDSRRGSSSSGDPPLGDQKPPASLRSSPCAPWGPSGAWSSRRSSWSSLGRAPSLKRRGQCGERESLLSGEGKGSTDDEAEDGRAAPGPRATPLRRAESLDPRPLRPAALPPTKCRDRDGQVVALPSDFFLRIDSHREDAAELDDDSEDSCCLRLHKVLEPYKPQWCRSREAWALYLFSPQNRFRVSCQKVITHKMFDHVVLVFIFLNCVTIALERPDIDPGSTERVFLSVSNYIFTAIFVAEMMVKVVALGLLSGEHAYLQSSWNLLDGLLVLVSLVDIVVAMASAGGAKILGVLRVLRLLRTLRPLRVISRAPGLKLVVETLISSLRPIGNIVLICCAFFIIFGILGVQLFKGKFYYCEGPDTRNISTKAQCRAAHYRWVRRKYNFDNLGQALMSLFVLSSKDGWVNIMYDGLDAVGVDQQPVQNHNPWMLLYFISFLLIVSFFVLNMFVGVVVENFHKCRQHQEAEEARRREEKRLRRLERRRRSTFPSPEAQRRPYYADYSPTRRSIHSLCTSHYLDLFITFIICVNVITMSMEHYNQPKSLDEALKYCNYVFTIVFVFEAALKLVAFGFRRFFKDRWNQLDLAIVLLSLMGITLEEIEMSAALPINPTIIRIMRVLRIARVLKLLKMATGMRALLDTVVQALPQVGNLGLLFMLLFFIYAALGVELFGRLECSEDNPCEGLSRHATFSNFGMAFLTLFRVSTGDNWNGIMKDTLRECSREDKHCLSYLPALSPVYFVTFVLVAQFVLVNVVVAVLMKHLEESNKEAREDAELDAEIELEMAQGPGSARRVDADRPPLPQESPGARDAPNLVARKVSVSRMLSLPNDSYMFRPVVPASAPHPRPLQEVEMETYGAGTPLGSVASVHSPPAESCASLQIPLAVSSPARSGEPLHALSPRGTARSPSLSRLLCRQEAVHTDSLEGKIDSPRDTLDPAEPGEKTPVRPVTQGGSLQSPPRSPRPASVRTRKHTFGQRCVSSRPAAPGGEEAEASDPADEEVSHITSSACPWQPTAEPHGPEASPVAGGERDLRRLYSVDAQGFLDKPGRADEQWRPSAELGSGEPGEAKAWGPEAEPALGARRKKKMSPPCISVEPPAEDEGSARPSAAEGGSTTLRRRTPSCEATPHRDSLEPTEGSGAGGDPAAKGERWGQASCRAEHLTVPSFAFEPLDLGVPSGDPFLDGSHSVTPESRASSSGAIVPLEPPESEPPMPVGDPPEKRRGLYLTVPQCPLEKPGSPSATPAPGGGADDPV

Turning to `C[C@@H](NC(=O)[C@H]1C[C@@H]1c1nc2ccccc2[nH]1)c1cc2c(F)cc(F)cc2o1` [Example 92, (1S,2S)-2-(1H-benzo[d]imidazol-2-yl)-N—((R)-1-(4,6-difluorobenzofuran-2-yl)ethyl)cyclopropane-1-carboxamide], in data set [1], the inhibition at 0.3 µM was 74%. Also, in data set [2], the “CYP3A4 activity inhibition ratio at 10 μM of test compound” value (“CYP3A4 activity inhibition ratio” for short) was 23.6%. Further, the pIC50 in data set [3] (setting [4]) is at least 7.00.
With `C[C@@H](NC(=O)[C@H]1C[C@@H]1c1nc2ccccc2[nH]1)c1nc2cc(F)ccc2o1` [Example 105, (1S,2S)-2-(1H-benzo[d]imidazol-2-yl)-N—((R)-1-(5-fluorobenzo[d]oxazol-2-yl)ethyl)cyclopropane-1-carboxamide], in data set [1], the inhibition at 0.3 µM stood at 58%. In addition, the “CYP3A4 activity inhibition ratio” value in data set [2] amounted to 21.2%. Besides, in data set [3] (setting [4]), the pIC50 is 6.00 to 7.00.
For `C[C@@H](NC(=O)C1CC1c1nc2ccccc2[nH]1)c1ccc(C(F)(F)F)s1` (single isomer, unassigned) [Example 5A], the inhibition at 0.3 µM in data set [1] turned out to be 59%. Also, in data set [2], the “CYP3A4 activity inhibition ratio” value is on record as 13.0%. Also, the pIC50 in data set [3] (setting [5]) and in data set [3] (setting [6]) was 6.00 to 7.00 in each case.
Turning to `C[C@@H](NC(=O)[C@H]1C[C@@H]1c1nc2ccccc2[nH]1)c1nc2ccc(F)cc2o1` [Example 114, (1S,2S)-2-(1H-benzo[d]imidazol-2-yl)-N—((R)-1-(6-fluorobenzo[d]oxazol-2-yl)ethyl)cyclopropane-1-carboxamide], the inhibition at 0.3 µM in data set [1] is 32%. In addition, in data set [2], the “CYP3A4 activity inhibition ratio” value came out at 30.0%. Moreover, the pIC50 in data set [3] (setting [4]) was 6.00 to 7.00.
Regarding `C[C@@H](NC(=O)[C@@H]1CCN(CC(=O)NC23CC4CC(CC(C4)C2)C3)C1)c1ccc(OCC(F)(F)F)s1` [Example 36, (R)-1-(2-(adamantan-1-ylamino)-2-oxoethyl)-N—((R)-1-(5-(2,2,2-trifluoroethoxy)thiophen-2-yl)ethyl)pyrrolidine-3-carboxamide], the inhibition at 0.3 µM in data set [1] is 94%. Moreover, the “CYP3A4 activity inhibition ratio” value in data set [2] stood at 81.0%. Also, in data set [3] (setting [4]), the pIC50 is at least 7.00.
Take `C[C@@H](NC(=O)[C@@H]1CCN(CC(=O)C(C)(C)C)C1)c1ccc(OCC(F)(F)F)s1` [Example 43, (R)-1-(3,3-dimethyl-2-oxobutyl)-N—((R)-1-(5-(2,2,2-trifluoroethoxy)thiophen-2-yl)ethyl)pyrrolidine-3-carboxamide]: in data set [1], the inhibition at 0.3 µM came out at 32%. For the same compound, the “CYP3A4 activity inhibition ratio” value in data set [2] came out at 23.6%. In addition, the pIC50 in data set [3] (setting [4]) was 6.00 to 7.00.
Turning to `C[C@@H](NC(=O)[C@H]1C[C@@H]1c1nc2ccccc2[nH]1)c1cc2cc(F)c(F)cc2o1` [Example 91, (1S,2S)-2-(1H-benzo[d]imidazol-2-yl)-N—((R)-1-(5,6-difluorobenzofuran-2-yl)ethyl)cyclopropane-1-carboxamide], the inhibition at 0.3 µM in data set [1] was 72%. Moreover, the “CYP3A4 activity inhibition ratio” value in data set [2] is 20.1%. The pIC50 in data set [3] (setting [4]) was at least 7.00.
Turning to `C[C@@H](NC(=O)[C@@H]1CCN(CC(=O)Nc2cc(Cl)cc(Cl)c2)C1)c1ccc(OCC(F)(F)F)s1` [Example 42, (R)-1-(2-((3,5-dichlorophenyl)amino)-2-oxoethyl)-N—((R)-1-(5-(2,2,2-trifluoroethoxy)thiophen-2-yl)ethyl)pyrrolidine-3-carboxamide], in data set [1], the inhibition at 0.3 µM turned out to be 87%. The “CYP3A4 activity inhibition ratio” value in data set [2] was 77.9%. The pIC50 in data set [3] (setting [4]) is at least 7.00.
On to `C[C@@H](NC(=O)[C@@H]1CCN(CC(=O)NC(C)(C)C)C1)c1ccc(OCC(F)(F)F)s1.Cl` [Example 15, (R)-1-(2-(tert-butylamino)-2-oxoethyl)-N—((R)-1-(5-(2,2,2-trifluoroethoxy)thiophen-2-yl)ethyl)pyrrolidine-3-carboxamide hydrochloride], for which, in data set [1], the inhibition at 0.3 µM came out at 33%. Further, the “CYP3A4 activity inhibition ratio” value in data set [2] is recorded as 21.9%. The values for the pIC50 in data set [3] (setting [5]) and in data set [3] (setting [6]) were 6.00 to 7.00 and 5.00 to 6.00, respectively.
Take `C[C@@H](NC(=O)[C@H]1C[C@@H]1c1nc2ccccc2[nH]1)c1ccc2cc[nH]c2c1` [Example 58, (1S,2S)—N—((R)-1-(1H-indol-6-yl)ethyl)-2-(1H-benzo[d]imidazol-2-yl)cyclopropane-1-carboxamide]: the “CYP3A4 activity inhibition ratio” value in data set [2] is reported as 53.5%. In addition, in data set [3] (setting [4]), the pIC50 was 6.00 to 7.00.
For `C[C@@H](NC(=O)[C@H]1C[C@@H]1c1nc2ccccc2[nH]1)c1cc2cc(C(F)(F)F)ccc2o1` [Example 109, (1S,2S)-2-(1H-benzo[d]imidazol-2-yl)-N—((R)-1-(5-(trifluoromethyl)benzofuran-2-yl)ethyl)cyclopropane-1-carboxamide], the “CYP3A4 activity inhibition ratio” value in data set [2] worked out at 24.1%. Moreover, in data set [3] (setting [4]), the pIC50 is 6.00 to 7.00.
Consider `C[C@@H](NC(=O)C1CC1c1nc(-c2ccccc2)c[nH]1)c1ccc(OCC(F)(F)F)s1` (single isomer, unassigned) [Example 31A], for which the “CYP3A4 activity inhibition ratio” value in data set [2] is reported as 7.0%. The pIC50 in data set [3] (setting [4]) was 6.00 to 7.00.
With `C[C@@H](NC(=O)[C@@H]1CCN(c2nc3ccccc3[nH]2)C1)c1ccc(OCC(F)(F)F)s1` [Example 12], the “CYP3A4 activity inhibition ratio” value in data set [2] was found to be 84.4%. Also, the pIC50 is 6.00 to 7.00 in data set [3] (setting [5]) and 5.00 to 6.00 in data set [3] (setting [6]).
In the case of `C[C@@H](NC(=O)[C@H]1C[C@@H]1c1nc2ccccc2[nH]1)c1cc2ccc(C(F)(F)F)cc2o1` [Example 123, (1S,2S)-2-(1H-benzo[d]imidazol-2-yl)-N—((R)-1-(6-(trifluoromethyl)benzofuran-2-yl)ethyl)cyclopropane-1-carboxamide], the “CYP3A4 activity inhibition ratio” value in data set [2] is 11.7%. For the same compound, the pIC50 in data set [3] (setting [4]) is at least 7.00.
On to `C[C@@H](NC(=O)C1CC1c1nccn1C)c1ccc(OCC(F)(F)F)s1` (mixture of isomers) [Example 20, Trans-2-(1-methyl-1H-imidazol-2-yl)-N—((R)-1-(5-(2,2,2-trifluoroethoxy)thiophen-2-yl)ethyl)cyclopropane-1-carboxamide], for which the “CYP3A4 activity inhibition ratio” value in data set [2] turned out to be 27.4%. Further, the pIC50 in data set [3] (setting [4]) is 5.00 to 6.00.
In the same order, the values of `C[C@@H](NC(=O)C1CC1c1c[nH]c2ccccc12)c1ccc(OCC(F)(F)F)s1` (single isomer, unassigned) [Example 21B] are 23.3% and 6.00 to 7.00.
On the same counts, the results for `CC(C(=O)Nc1ccccc1)N1CC[C@@H](C(=O)N[C@H](C)c2ccc(OCC(F)(F)F)s2)C1` (stereo partly drawn) [Example 24, (3R)-1-(1-oxo-1-(phenylamino)propan-2-yl)-N—((R)-1-(5-(2,2,2-trifluoroethoxy)thiophen-2-yl)ethyl)pyrrolidine-3-carboxamide] are 51.1% and 6.00 to 7.00.
For `CC(C)[C@@H](NC(=O)[C@H]1C[C@@H]1c1nc2ccccc2[nH]1)c1cc2ccc(F)cc2o1` [Example 124, (1S,2S)-2-(1H-benzo[d]imidazol-2-yl)-N—((R)-1-(6-fluorobenzofuran-2-yl)-2-methylpropyl)cyclopropane-1-carboxamide], in data set [2], the “CYP3A4 activity inhibition ratio” value is 28.6%. Besides, the pIC50 in data set [3] (setting [4]) was at least 7.00.

(Values after patent US11420944B2, “Voltage-dependent t-type calcium channel blocker” (Nippon Chemiphar Co., Ltd., priority 2016, dated 2022).)
